Source: patent US20080003634A1, “Extended Primary Retinal Cell Culture and Stress Models, and Methods of Use” (ACUCELA, INC., priority 2003, published 2008)

Columns and labels:
[1] = tested on: rhodopsin-expressing photoreceptors; test: A2E-induced stress, rhodopsin-labeled photoreceptor count in mature retinal cell culture; type: cell-based, Porcine
Text: (§1) Porcine eyes were obtained from Kapowsin Meats, Inc. (Graham, Wash.). Eyes were enucleated, and muscle and tissue were cleaned away from the orbit. Eyes were cut in half along their equator and the neural retina was dissected from the anterior part of the eye in buffered saline solution, according to standard methods known in the art. Briefly, the retina, ciliary body, and vitreous were dissected away from the anterior half of the eye in one piece, and the retina was gently detached from the clear vitreous. Each retina was dissociated with papain (Worthington Biochemical Corporation, Lakewood, N.J.), followed by inactivation with fetal bovine serum (FBS) and addition of 134 Kunitz units/ml of DNaseI. […]
(§2) Cultures were analyzed by counting rhodopsin-labeled photoreceptors and NFM-labeled ganglion cells using an Olympus IX81 or CZX41 microscope (Olympus, Tokyo, Japan). Twenty fields of view were counted per coverslip with a 20× objective lens. Six coverslips were analyzed by this method for each condition in each experiment. Cells that were not exposed to any stressor were counted, and cells exposed to a stressor were normalized to the number of cells in the control. […]
(§3) Immunocytochemical analysis was performed and the data analyzed as described in Examples 1 and 2.

[2] = tested on: NFM-expressing ganglion cells; test: A2E-induced stress, NFM-labeled ganglion cell count in mature retinal cell culture; type: cell-based, Porcine
Text: as §1, §2, §3

[3] = tested on: rhodopsin-expressing photoreceptors; test: EPO effect on photoreceptor survival under A2E stress in retinal cell culture; type: cell-based, Porcine; details: A2E 25 μM for 24 hours, no EPO; FIG. 13
Text: as §1
as §2, with “exposed to either EPO or to any stressor” for “exposed to any stressor”, “a stressor with or without treatment with EPO were normalized” for “a stressor were normalized”

[4] = tested on: bovine retinal pigment epithelial cells; details: bovine RPE cells; cited from earlier work

Compound	death of photoreceptor cells compared to photoreceptor cells not exposed to A2E ([1]; 20 μM A2E for 48 hours)	number of rhodopsin-expressing photoreceptors ([1]; varying concentrations of A2E (0, 10, 20, 40 μM), 24 hours, FIG. 7)	survival of ganglion cells ([2]; 20 μM A2E for 48 hours)	number of NFM-expressing ganglion cells versus no stress ([2]; 20 μM A2E, 24 hours, FIG. 8)	total live cell count of rhodopsin-expressing photoreceptors after stress versus before stress [3]	growth and replication of the cells [4]
CC(C=CC1=C(C)CCCC1(C)C)=CC=CC(C)=Cc1cc(C=CC=C(C)C=CC2=C(C)CCCC2(C)C)cc[n+]1CCO [A2E, N-retinylidene-N-retinyl-ethanolamine]	more than 90%	showed a dose response	not adversely affected	not statistically different	much smaller	–
c1ccc2c(c1)cc1ccc3cccc4ccc2c1c34 [benzo(a)pyrene]	–	–	–	–	–	appeared to inhibit growth and replication
